Experiments:
G146A 5-12 G-quadruplex = experiment: CD kinetics, temperature-jump, G146A; assay type: biochemical, human; conditions: 2 equiv
Protocol: FIGS. 10A and 10B are a set of graphs showing (A) comparison of kinetics of initial folding rate of the WT 5-12 G-quadruplex with GTC365 and BRACO-19 by the temperature-jump method. (B) Enhanced initial folding rate of the 5-12 G-quadruplexes carrying different hTERT mutants by GTC365. The time-course CD signal of preheated oligo with compound or DMSO in a buffer containing 10 mM Tris-HCl (pH 7.5) and 5 mM KCl was monitored at 262 nm and 25° C.
For the kinetics analysis using the temperature-jump method, theoligo in a buffer containing 10 mM Tris-HCl (pH 7.5) was heated forl min at 95° C., and then a mixture of KCl and compound was addedand incubated for 1 min. Meanwhile, the CD cuvette was also heatedat 95° C. As soon as the sample in the CD cuvette at the hightemperature was placed in the CD chamber, a time-dependent CDsignal at 262 nm was recorded immediately. The initial folding ratewas determined by one-phase association curve fitting (eq 1) of thekinetics curve using GraphPad Prism 5: Y=Y0+(Plateau−Y0)*(1−e^−kx) (1) where Y is the CD signal at any time point x, Y0 is the Y value whentime (x) is zero, plateau is the Y value at infinite time, and k is the rateconstant.
To evaluate the comparative effects of GTC365 relative to BRACO-19 on the cooperative folding process, we carried out two different experiments. […]

[1] = molecular target: WT 5-12 G-quadruplex of hTERT core promoter (FAM/TAMRA probe); experiment: FRET assay for compound screening and Kd, WT probe; assay type: binding, human
Protocol: FRET assay for compound screening and determination of Kd value. FRET probes of WT, G124/125A, and G146A of the 5-12 G-quadruplex were synthesized and labeled with FAM (Ex. 490 nm/Em. 520 nm) and TAMRA (Ex. 560 nm/Em. 580 nm) at each end by MGW Operon Inc. The WT probe (50 nM) was annealed in a buffer containing 10 mM Tris-HCl (pH 7.5) and 5 mM KCl by heating at 95° C. for 5 min and slowly cooling to room temperature. Compounds (50 μM) and probe were incubated for 1 h at room temperature. The same volume of DMSO served as a control. For Kd value determination, the WT, G124/125A, and G146A probes were annealed, and then several concentrations of compound were treated for 1 h at room temperature. Dose-dependent fluorescence intensity at 520 nm was measured by a microplate reader (BioTek Synergy HT). The data were corrected with the blank signal of buffer and compound. The relative fluorescence intensity compared to DMSO was used for binding curve fitting to determine Kd value using GraphPad Prism software.
The hTERT core promoter region includes 12 runs of consecutive guanines that form two G-quadruplexes in tandem on the G-rich strand. […] When the G-quadruplex is folded, two fluorophores are in proximity, which leads to a decrease in FAM fluorescence. […]

[2] = test system: melanoma cell lines with characterized TERT promoter status (19 cell lines); experiment: 6-point 72 h MTS proliferation assay, WT versus promoter mutant melanoma cell lines; assay type: cell-based, human
Protocol: FIGS. 13A-13C are a set of graphs showingselective reduction in viability (A) and hTERT expression (B) in melanoma cells carrying hTERT core promotor mutations. NHM-002 (normal human melanocytes) and a G124A mutant cell line were treated with vehicle, 1.25, 2.5, and 5 μM GTC365 for 72 h. Viability was reduced in hTERT mutant melanoma cells by 50% (left). […] (C) Differential response to GTC365 in WT and promoter mutant cell lines.
Next, to assess the selectivity of GTC365 for hTERT-dependent cancer cells relative to normal precursorcells, we compared the effects of a range of […] on viability at 72 h in normal humanmelanocytes (NHM-002) relative to those of UACC-903, aG124A mutant (FIG. 13A). […] To confirm that the reduction in cell viability was aresult of hTERT downregulation, we performed reverse transcription and qPCR to measure the mRNA level of hTERT expression in cells treated with DMSO or 5 μMGTC365. hTERT expression was reduced by 41% in themelanoma cell line after 72 h but was undetectable in normalmelanocytes, even in the absence of GTC365 (FIG. 13B). Finally, tobroadly assess the selectivity of GTC365 for hTERT promotermutant versus WT cells, we conducted a 6-point 72 h MTSproliferation assay to determine EC50s in 14 additional melanoma cell lines with characterized TERT promoter status([…]) (FIG. 13C). […]

## N=C(N)NCCCS(=O)(=O)Nc1ccc(Nc2c3ccccc3nc3cc([N+](=O)[O-])ccc23)cc1 [GTC365]
G146A 5-12 G-quadruplex
  increase of initial folding rate: 0.054 s⁻¹
[1]; WT probe, FAM- and TAMRA-labeled oligomer
  Kd: ~400 nM
[1]; compounds 50 μM, WT probe 50 nM, 10 mM Tris-HCl, 5 mM KCl, 1 h
  reduction of fluorescence intensity (FRET): 94%
[2]
  response (EC50) in WT versus mutant melanoma cell lines: significant differential response

— US10556860B2, “hTERT modulators and methods of use” (Arizona Board of Regents on Behalf of the University of …, priority 2015, dated 2020)
